The source of these data is PubChem BioAssay (NCI).

Several values for one entry are separate records, joined by “and”; a condition that tells them apart may be missing. Equal entries are not always repeated.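 Where inhibition never reached the appropriate level, the endpoint shown equals the highest concentration tested. Otherwise, values were interpolated linearly from a five-concentration, 48-hour dose response in 96-well plates. TGI marks complete inhibition of growth.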

Assay in all cases: NCI-60 cell line screen, 48 h
The subject of test [1] is NCI-H460 lung.
Test [2] concerns MDA-N.
Test [3] deals with T-47D breast.
Test [4] relates to ACHN renal.
Test [5] relates to COLO 205 colon.
The test system of test [6] is HL-60(TB) leukemia.
The test system of test [7] is A498 renal.
In test [8] the test system is HOP-92 NSCLC.
Test [9] has as its system M14 melanoma.
The subject of test [10] is MALME-3M melanoma.

Turning to `C#CC(C)(C)Oc1cc(OC)c2c(=O)c3ccccc3n(C)c2c1`, the TGI in test [1] came out at 36 µM; in test [2], 31.1 µM; in [3] it was 27.9 µM; in test [4] it was 64.6 µM; in test [5], 33.7 µM; in [6], 28.7 µM.
Consider `CC(C)(CN1CCCCC1)C(=O)CC(SCCS(=O)(=O)O)c1ccc(Br)cc1` (stereo unspecified), for which the TGI in [7] was found to be 5.73 µM; in test [1] it was 4.48 µM; in [8], 2.08 µM; in test [9] it was 3.54 µM; in test [4], 3.1 µM; in test [5], 2.82 µM. The TGI in [10] came to 3.38 µM.
Turning to `Cc1cccc(NC(=O)CC(=O)N2N=C(N3c4ccccc4Sc4ccccc43)CC2c2ccccc2)c1` (stereo unspecified), the TGI in test [7], in test [1], in [8], in test [3], in test [9] and in test [4] was > 100 µM each time. The TGI in test [5] and in test [6] was > 100 µM in each case.
With `Cc1nc2c(n1Cc1ccc(Cl)cc1)C(=O)c1ccccc1C2=O`, the TGI in test [1], in [9], in test [4], in [5], in test [10] and in test [6] was > 75 µM throughout.
Turning to `O=C1CCC2(CC1)Cc1ccccc1C2O` (stereo unspecified), the TGI in test [1], in test [2], in test [3], in test [9], in test [4] and in test [5] was > 100 µM throughout. Also, the TGI in [10] and in [6] was > 100 µM in each case.
For `O=C1c2ccccc2NC2C(O)c3ccccc3N12` (stereo unspecified), the TGI is 37.9 µM in [7]; 55.7 µM in test [1]; > 100 µM in [8]; > 100 µM in test [3]; > 100 µM in [9]; > 100 µM in test [4]. Further, the TGI in test [5] and in [10] was > 100 µM in each case.
With `COc1ccc(Cn2nc(OCc3ccccn3)c3cc([N+](=O)[O-])ccc32)cc1`, the TGI in [7], in test [1], in [2], in test [3], in test [9] and in [4] was > 100 µM each time. In addition, the TGI in [10] and in [6] was > 100 µM in each case.
Consider `Cc1ccc2ccccc2c1CC1S(=O)(=O)OCCOS1(=O)=O`, for which the TGI came out at 27.4 µM in test [1]; 22.2 µM in test [2]; 28.7 µM in [9]; 28.8 µM in test [4]; 6.1 µM in test [5]; 25.2 µM in [10]. This molecule also showed a TGI in test [6] of 5.38 µM.
`CC1=NN(c2nc(N)nc(/C(C#N)=C/c3ccncc3)n2)C(C)(C)C1`: the TGI in test [7], in test [1], in test [8], in test [3], in [9] and in [4] was > 100 µM each time. Further, the TGI in test [5] and in [6] was > 100 µM throughout.
Turning to `O=c1c(Cc2ccc(Cl)cc2)nnc2sc(-c3ccc([N+](=O)[O-])cc3)nn12`, the TGI is 63.6 µM in test [7]; 44.1 µM in test [1]; > 100 µM in [2]; > 100 µM in test [8]; 39.2 µM in [9]; 87.3 µM in [4]. Besides, the values for the TGI in test [10] and in test [6] were 55.5 µM and 49.6 µM, respectively.
For `O=C(c1ccccc1F)c1c(NCc2ccccc2)c(=O)c1=O`, the TGI in [7], in test [1], in [2], in test [8], in [9] and in test [4] was > 100 µM throughout. In addition, the TGI in test [5], in [10] and in [6] was > 100 µM each time.
As for `CCCCN(CCCC)C(=NCc1ccccc1)NC#N`, the TGI in [7] amounted to 42.6 µM; in test [1], 26.9 µM; in test [8], 33.4 µM; in test [9] it was 52.1 µM; in test [4], 65.9 µM; in [5] it was 33 µM. The TGI came out at 87.4 µM in test [10] and 35.7 µM in test [6].
As to `Brc1ccc(N2C[N+](c3ccc(Br)cc3)=NC(c3ccccc3)=N2)cc1`, the TGI in [7] was 32.8 µM and > 100 µM; in [1], 29.5 µM and > 100 µM; in [8], 34.1 µM and > 100 µM; in test [9], 26.2 µM and > 100 µM; in test [4], 26.4 µM and > 100 µM; in test [5], 33.7 µM and > 100 µM. The TGI in test [10] is 31.2 µM and > 100 µM; in [6], 35.2 µM and > 100 µM.
On to `Cc1cs/c(=N\C(P(=O)(O)O)P(=O)(O)O)n1C`, for which the TGI in test [7], in test [1], in [2], in [8], in test [9] and in [4] was > 100 µM each time. Besides, the TGI in test [5], in test [10] and in [6] was > 100 µM in each case.
Turning to `Cc1cc(S(=O)(=O)Nc2n[nH]c(Nc3ccccc3)n2)c(S)cc1Cl`, the TGI in test [7], in [1], in [3], in test [9], in test [4] and in test [5] was > 10 µM each time. Besides, the TGI in [10] and in [6] was > 10 µM each time.
Take `COc1cc(C2SCC(=O)N2NC(=O)c2ccc(NC(C)=O)cc2)cc(OC)c1OC` (stereo unspecified): the TGI in [7], in test [1], in test [8], in test [3], in [9] and in test [4] was > 100 µM in each case. Further, the TGI in [5] and in [6] was > 100 µM in each case.
With `O=C(c1cccs1)N(C(=S)N1CCN(c2ccccc2)CC1)c1ccccc1`, the TGI in test [1], in test [8], in [9], in [4], in test [5] and in test [10] was > 100 µM throughout. Besides, the TGI in [6] was > 100 µM.
